# Where no end group is shown, it is not given here.
# Experiments:
# [1] = Stability in chronic wound extracts (CWE), capillary zone electrophoresis; type: in vitro ADME, human; conditions: 37°C, CZE; for Percentage intact, CWE 2h / Percentage intact, CWE 4h / Percentage intact, CWE 8h / Percentage intact, CWE 16h / Percentage intact, CWE 24h / Percentage intact, CWE 48h / Percentage intact, CWE 72h / Percentage intact, CWE 96h: 1 mg/ml in PBS mixed 1:1 with CWE (1 mg/ml protein, pool of 5 donors) in PBS, UV 200 nm, ratio to imidazole
# How it was run: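 Peptides or cytokines (1 mg/ml stock) mixed 1:1 with PBS or pooled chronic-wound extract (1 mg/ml protein, three pools of five donors), ±protease inhibitor cocktail, at 37 °C for up to 96 h. Analyzed by capillary zone electrophoresis (pH 2.5 phosphate, 200 nm), with peak ratio to imidazole standard relative to 0 h as % intact.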
# [2] = Stability in CWE with protease inhibitor cocktail (PIC), capillary zone electrophoresis; type: in vitro ADME, human; conditions: 37°C, CZE, 0 h = 100%; for Percentage intact, CWE + PIC 2h / Percentage intact, CWE + PIC 4h / Percentage intact, CWE + PIC 8h / Percentage intact, CWE + PIC 16h / Percentage intact, CWE + PIC 24h / Percentage intact, CWE + PIC 48h / Percentage intact, CWE + PIC 72h / Percentage intact, CWE + PIC 96h: 1 mg/ml in PBS mixed 1:1 with CWE (1 mg/ml protein, pool of 5 donors) in PBS containing PIC (final 1:140 v/v), ratio to imidazole
# Text: Debridement tissue was obtained from chronic ulcers of 15 patients with therapy resistant (arterio-venous) leg ulcers, according to procedures described earlier. In brief, moist, easily removable debridement material, essentially blood free, was collected from the ulcer surface and divided equally into two different solutions: (i) PBS (B. Braun, Melsungen, Germany), (ii) PBS with protease inhibitor cocktail (PIC) (1:100; v/v) (Sigma-Aldrich, Steinheim, Germany). The mixtures were gently shaken for 1 h at 4°C to elute proteins and centrifuged; the supernatants were stored at -80°C. Total protein content of the supernatant was measured using the BioRad Protein Assay (BioRad Laboratories, Hercules, California, USA) essentially as described by the supplier. Samples were diluted to 1 mg/ml protein and extracts of five different donors were pooled; three different pools of five donors were used in all experiments. The samples are referred to as chronic wound extracts (CWE).
# To determine the stability of the different peptides in CWE, histatins and cytokines were dissolved in PBS at 1 mg/ml. Histatins and cytokines were incubated in a 1:1 ratio with (i) PBS, (ii) CWE in PBS, or (iii) CWE in PBS containing PIC, in a total volume of 25 μl. Imidazole (Sigma-Aldrich) was added as an internal standard, with a final concentration of 100 μg/ml. The mixtures were incubated at 37°C, and samples were taken at 0, 24, 48, 72 and 96 h. For histatins containing mixtures, additional samples were taken after 2, 4, 8 and 16 h of incubation.
# The samples were analyzed with a BioFocus 2000 capillary zone electrophoresis system (Bio-Rad Laboratories, Hercules, CA, USA) equipped with an uncoated fused-silica capillary of internal diameter 50 μm and a length of 24 cm. Samples were loaded by pressure injection (5 psi/sec). Separation was performed at 10 kV (cathode at the detector side) at 20°C using 0.1 M phosphate buffer (pH 2.5) as electrolyte and monitored continuously at 200 nm. Peaks were quantified with the BioFocus Integrator software. In order to quantify the percentage of intact peptides remaining after incubation with CWE, the ratios of histatins, rhIL-6 or rhCXCL8 to internal standard was set at 100% at 0h, and the ratios at the other incubation time points were related to this.
sequence,measurement,setting,value
SHREFPFYGDYGS [mad-Hst1],"Percentage intact, CWE 2h","[1]; 0 h = 100%, experiment 1 of 3",91.7%
same,"Percentage intact, CWE 2h","[1]; 0 h = 100%, experiment 2 of 3",99.5769%
same,"Percentage intact, CWE 2h","[1]; 0 h = 100%, experiment 3 of 3",98.2054%
same,"Percentage intact, CWE 4h","[1]; 0 h = 100%, experiment 1 of 3",84.5%
same,"Percentage intact, CWE 4h","[1]; 0 h = 100%, experiment 2 of 3",100.271%
same,"Percentage intact, CWE 4h","[1]; 0 h = 100%, experiment 3 of 3",91.5097%
same,"Percentage intact, CWE 8h","[1]; 8 h, 0 h = 100%, experiment 1 of 3",75.7%
same,"Percentage intact, CWE 8h","[1]; 8 h, 0 h = 100%, experiment 2 of 3",86.2011%
same,"Percentage intact, CWE 8h","[1]; 8 h, 0 h = 100%, experiment 3 of 3",78.6965%
same,"Percentage intact, CWE 16h","[1]; 0 h = 100%, experiment 1 of 3",69.2%
same,"Percentage intact, CWE 16h","[1]; 0 h = 100%, experiment 2 of 3",65.943%
same,"Percentage intact, CWE 16h","[1]; 0 h = 100%, experiment 3 of 3",57.6063%
same,"Percentage intact, CWE 24h","[1]; 24 h, 0 h = 100%, experiment 1 of 3",42.5808%
same,"Percentage intact, CWE 24h","[1]; 24 h, 0 h = 100%, experiment 2 of 3",50.836%
same,"Percentage intact, CWE 24h","[1]; 24 h, 0 h = 100%, experiment 3 of 3",32.6705%
same,"Percentage intact, CWE 48h","[1]; 0 h = 100%, experiment 1 of 3",12.2019%
same,"Percentage intact, CWE 48h","[1]; 0 h = 100%, experiment 2 of 3",19.3697%
same,"Percentage intact, CWE 48h","[1]; 0 h = 100%, experiment 3 of 3",24.0021%
same,"Percentage intact, CWE 72h","[1]; 0 h = 100%, experiment 1 of 3",1.49%
same,"Percentage intact, CWE 72h","[1]; 0 h = 100%, experiment 2 of 3",2.89%
same,"Percentage intact, CWE 72h","[1]; 0 h = 100%, experiment 3 of 3",2.789%
same,"Percentage intact, CWE 96h","[1]; 0 h = 100%, experiment 1 of 3",0.001%
same,"Percentage intact, CWE 96h","[1]; 0 h = 100%, experiment 2 of 3",0.001%
same,"Percentage intact, CWE 96h","[1]; 0 h = 100%, experiment 3 of 3",1.322%
same,"remaining at 8 h, 0.5 mg/ml","[1]; human, chronic wound extracts (CWE), 1 mg/ml in PBS mixed 1:1 with CWE (1 mg/ml protein, pools of 5 donors), 8 h, 0 h = 100%, mean of 3 independent experiments, read-out: Original amount of peptide remaining intact after 8 h in CWE",80%
same,"remaining at 24 h, 0.5 mg/ml","[1]; human, chronic wound extracts (CWE), 1 mg/ml in PBS mixed 1:1 with CWE (1 mg/ml protein, pools of 5 donors), 24 h, 0 h = 100%, mean of 3 independent experiments, read-out: Original amount of peptide remaining intact after 24 h in CWE",42%
same,"metabolised at 8 h, 0.5 mg/ml","[1]; human, chronic wound extracts (CWE), incubation with chronic wound extracts, 8 h, read-out: Breakdown (degradation) in CWE in 8 h",~20%
same,"Percentage intact, CWE + PIC 2h",[2]; experiment 1 of 3,100%
same,"Percentage intact, CWE + PIC 2h",[2]; experiment 2 of 3,98.3314%
same,"Percentage intact, CWE + PIC 2h",[2]; experiment 3 of 3,98.9861%
same,"Percentage intact, CWE + PIC 4h",[2]; experiment 1 of 3,97.1353%
same,"Percentage intact, CWE + PIC 4h",[2]; experiment 2 of 3,95.8953%
same,"Percentage intact, CWE + PIC 4h",[2]; experiment 3 of 3,98.3062%
same,"Percentage intact, CWE + PIC 8h",[2]; experiment 1 of 3,96.5658%
same,"Percentage intact, CWE + PIC 8h",[2]; experiment 2 of 3,92.2482%
same,"Percentage intact, CWE + PIC 8h",[2]; experiment 3 of 3,95.5781%
same,"Percentage intact, CWE + PIC 16h",[2]; experiment 1 of 3,90.0803%
same,"Percentage intact, CWE + PIC 16h",[2]; experiment 2 of 3,88.9151%
same,"Percentage intact, CWE + PIC 16h",[2]; experiment 3 of 3,87.9983%
same,"Percentage intact, CWE + PIC 24h","[2]; 24 h, experiment 1 of 3",92.5228%
same,"Percentage intact, CWE + PIC 24h","[2]; 24 h, experiment 2 of 3",84.6363%
same,"Percentage intact, CWE + PIC 24h","[2]; 24 h, experiment 3 of 3",83.1367%
same,"Percentage intact, CWE + PIC 48h",[2]; experiment 1 of 3,76.9205%
same,"Percentage intact, CWE + PIC 48h",[2]; experiment 2 of 3,78.1025%
same,"Percentage intact, CWE + PIC 48h",[2]; experiment 3 of 3,83.127%
same,"Percentage intact, CWE + PIC 72h",[2]; experiment 1 of 3,74.0975%
same,"Percentage intact, CWE + PIC 72h",[2]; experiment 2 of 3,73.8197%
same,"Percentage intact, CWE + PIC 72h",[2]; experiment 3 of 3,80.0857%
same,"Percentage intact, CWE + PIC 96h",[2]; experiment 1 of 3,76.9035%
same,"Percentage intact, CWE + PIC 96h",[2]; experiment 2 of 3,71.7331%
same,"Percentage intact, CWE + PIC 96h",[2]; experiment 3 of 3,77.8206%
same,"remaining at 24 h, 0.5 mg/ml","[2]; human, with protease inhibitor cocktail (PIC), CWE with protease inhibitor cocktail (final 1:140 v/v), 24 h, mean of 3 independent experiments, read-out: Remaining fraction of intact peptide after 24 h in CWE + PIC",87%
